How the values were obtained:
Format in all cases: in vivo
Spodoptera littoralis = Spodoptera littoralis (Egyptian cotton leaf worm) leaf disc spray test; settings: foliar, 72 h, application rate of 200 ppm, cotton leaf discs, L1 larvae, 3 days after infestation, read-out: control (at least one of mortality, anti-feedant effect, growth inhibition)
Protocol: Spodoptera littoralis (Egyptian Cotton Leaf Worm)
Cotton leaf discs were placed on agar in 24-well microtiter plates and sprayed with aqueous test solutions prepared from 10'000 ppm DMSO stock solutions. After drying the leaf discs were infested with five L1 larvae. The samples were assessed for mortality, anti-feedant effect, and growth inhibition in comparison to untreated samples 3 days after infestation. Control of Spodoptera littoralis by a test sample is when at least one of mortality, anti-feedant effect, and growth inhibition is higher than the untreated sample.

Plutella xylostella = Plutella xylostella (diamond back moth) artificial diet test; settings: 120 h, application rate of 200 ppm, L2 larvae, 5 days after infestation, read-out: effect in at least one of the two categories (mortality or growth inhibition)
Protocol: Plutella xylostella (Diamond Back Moth):
24-well microtiter plates with artificial diet were treated with aqueous test solutions prepared from 10'000 ppm DMSO stock solutions by pipetting. After drying, the plates were infested with L2 larvae (10 to 15 per well). The samples were assessed for mortality and growth inhibition in comparison to untreated samples 5 days after infestation. The following compounds gave an effect of at least 80% in at least one of the two categories (mortality or growth inhibition) at an application rate of 200 ppm: 1, 2, 3, 4, 5, 6, 7, 8, 9, 10, 11, 12, 13, 14, 15, 16, 17, 18, 19, 20, 21, 22, 23, 24, 25, 26, 27, 28, 29, 30, 31, 32, 33, 35, 36, 37, 38, 39, 40, 41, 42, 43, 44, 45, 46, 47, 48, 50, 51, 52, 53, 54 and 55.

Diabrotica balteata = Diabrotica balteata (corn root worm) maize sprout test; settings: 96 h, application rate of 200 ppm, maize sprouts, L2 larvae, 4 days after infestation, read-out: effect in at least one of the two categories (mortality or growth inhibition)
Protocol: Diabrotica balteata, (Corn Root Worm)
Maize sprouts, placed on an agar layer in 24-well microtiter plates were treated with aqueous test solutions prepared from 10'000 ppm DMSO stock solutions by spraying. After drying, the plates were infested with L2 larvae (6 to 10 per well). The samples were assessed for mortality and growth inhibition in comparison to untreated samples 4 days after infestation. The following compounds gave an effect of at least 80% in at least one of the two categories (mortality or growth inhibition) at an application rate of 200 ppm: 1, 3, 4, 5, 6, 7, 8, 9, 10, 11, 12, 14, 15, 16, 17, 18, 19, 20, 21, 22, 23, 24, 25, 26, 27, 28, 29, 30, 31, 32, 33, 35, 36, 37, 38, 39, 40, 41, 42, 43, 44, 45, 48, 50, 51, 52, 53, 54 and 55.

Thrips tabaci = Thrips tabaci (onion thrips) sunflower leaf disc test; settings: foliar, 144 h, application rate of 200 ppm, sunflower leaf discs, mixed ages, 6 days after infestation
Protocol: Thrips tabaci (Onion thrips):
(§1) Sunflower leaf discs were placed on agar in 24-well microtiter plates and sprayed with aqueous test solutions prepared from 10'000 ppm DMSO stock solutions. After drying the leaf discs were infested with a thrips population of mixed ages. The samples were assessed for mortality 6 days after infestation.

Tetranychus urticae = Tetranychus urticae (two-spotted spider mite) bean leaf disc test; settings: foliar, 192 h, application rate of 200 ppm, bean leaf discs, mixed population (mobile stages), 8 days after infestation
Protocol: Tetranychus urticae (Two-Spotted Spider Mite):
as §1, with “Bean” for “Sunflower”, “discs” for “discs were placed”, “were” for “and”, “mite” for “thrips”, “on mixed population (mobile stages) 8” for “6”

Euschistus heros = Euschistus heros (neotropical brown stink bug) soybean leaf test; settings: 120 h, application rate of 200 ppm, soybean leaves, N2 nymphs, 5 days after infestation, read-out: effect in at least one of the two categories (mortality or growth inhibition)
Protocol: Euschistus heros (Neotropical Brown Stink Bug)
Soybean leaves on agar in 24-well microtiter plates were sprayed with aqueous test solutions prepared from 10'000 ppm DMSO stock solutions. After drying the leaves were infested with N2 nymphs. The samples were assessed for mortality and growth inhibition in comparison to untreated samples 5 days after infestation. The following compounds gave an effect of at least 80% in at least one of the two categories (mortality or growth inhibition) at an application rate of 200 ppm: 3, 4, 5, 6, 9, 10, 12, 14, 15, 16, 17, 18, 20, 24, 27, 28, 29, 31, 32, 33, 36, 37, 38, 42, 43, 45, 50, 52, 53, 54 and 55.

Cn1nc(C(F)(F)C(F)(F)F)c(C(F)(F)F)c1-n1cc(-c2cc(Cl)c(C(=O)NC3CC3)s2)cn1 [Compound 1, 3-chloro-N-cyclopropyl-5-[1-[2-methyl-5-(1,1,2,2,2-pentafluoroethyl)-4-(trifluoromethyl)pyrazol-3-yl]pyrazol-4-yl]thiophene-2-carboxamide]
≥ 80%: control (mortality, anti-feedant effect or growth inhibition) at 200 ppm (Spodoptera littoralis) | percent effect (mortality or growth inhibition) at 200 ppm (Plutella xylostella) | percent effect (mortality or growth inhibition) at 200 ppm (Diabrotica balteata) | mortality at 200 ppm (Thrips tabaci) | mortality at 200 ppm (Tetranychus urticae)

Cn1nc(C(F)(F)C(F)(F)F)c(C(F)(F)F)c1-n1cc(-c2cc(Cl)c(C(=O)NC3(C#N)CC3)s2)cn1 [Compound 2, 3-chloro-N-(1-cyanocyclopropyl)-5-[1-[2-methyl-5-(1,1,2,2,2-pentafluoroethyl)-4-(trifluoromethyl)pyrazol-3-yl]pyrazol-4-yl]thiophene-2-carboxamide]
≥ 80%: control (mortality, anti-feedant effect or growth inhibition) at 200 ppm (Spodoptera littoralis) | percent effect (mortality or growth inhibition) at 200 ppm (Plutella xylostella)

Cn1nc(C(F)(F)C(F)(F)F)c(C(F)(F)F)c1-n1cc(-c2nc(C(=O)NC3(C#N)CC3)c(Cl)s2)cn1 [Compound 7, 5-chloro-N-(1-cyanocyclopropyl)-2-[1-[2-methyl-5-(1,1,2,2,2-pentafluoroethyl)-4-(trifluoromethyl)pyrazol-3-yl]pyrazol-4-yl]thiazole-4-carboxamide]
≥ 80%: control (mortality, anti-feedant effect or growth inhibition) at 200 ppm (Spodoptera littoralis) | percent effect (mortality or growth inhibition) at 200 ppm (Plutella xylostella) | percent effect (mortality or growth inhibition) at 200 ppm (Diabrotica balteata) | mortality at 200 ppm (Tetranychus urticae)

Cn1nc(C(F)(F)C(F)(F)F)c(C(F)(F)F)c1-n1cc(-c2nc(C(=O)NC3CC3)c(Cl)s2)cn1 [Compound 8, 5-chloro-N-cyclopropyl-2-[1-[2-methyl-5-(1,1,2,2,2-pentafluoroethyl)-4-(trifluoromethyl)pyrazol-3-yl]pyrazol-4-yl]thiazole-4-carboxamide]
≥ 80%: control (mortality, anti-feedant effect or growth inhibition) at 200 ppm (Spodoptera littoralis) | percent effect (mortality or growth inhibition) at 200 ppm (Plutella xylostella) | percent effect (mortality or growth inhibition) at 200 ppm (Diabrotica balteata)

Cn1nc(C(F)(F)C(F)(F)F)c(C(F)(F)F)c1-n1cc(-n2cc(C(=O)NC3(C#N)CC3)c(C(F)(F)F)n2)cn1 [Compound 11]
≥ 80%: control (mortality, anti-feedant effect or growth inhibition) at 200 ppm (Spodoptera littoralis) | percent effect (mortality or growth inhibition) at 200 ppm (Plutella xylostella) | percent effect (mortality or growth inhibition) at 200 ppm (Diabrotica balteata) | mortality at 200 ppm (Thrips tabaci) | mortality at 200 ppm (Tetranychus urticae)

C=C(C)CNC(=O)c1cc(-c2cnn(-c3c(C(F)(F)F)c(C(F)(F)C(F)(F)F)nn3C)c2)sc1Cl [Compound 13]
≥ 80%: control (mortality, anti-feedant effect or growth inhibition) at 200 ppm (Spodoptera littoralis) | percent effect (mortality or growth inhibition) at 200 ppm (Plutella xylostella) | mortality at 200 ppm (Tetranychus urticae)

Cn1nc(C(F)(F)C(F)(F)F)c(C(F)(F)F)c1-n1cc(-c2cc(C(=O)NCc3ccccc3)c(Cl)s2)cn1 [Compound 19]
≥ 80%: control (mortality, anti-feedant effect or growth inhibition) at 200 ppm (Spodoptera littoralis) | percent effect (mortality or growth inhibition) at 200 ppm (Plutella xylostella) | percent effect (mortality or growth inhibition) at 200 ppm (Diabrotica balteata) | mortality at 200 ppm (Tetranychus urticae)

Cn1nc(C(F)(F)C(F)(F)F)c(C(F)(F)F)c1-n1cc(-c2cc(C(=O)Nc3ccncc3)c(Cl)s2)cn1 [Compound 21]
≥ 80%: control (mortality, anti-feedant effect or growth inhibition) at 200 ppm (Spodoptera littoralis) | percent effect (mortality or growth inhibition) at 200 ppm (Plutella xylostella) | percent effect (mortality or growth inhibition) at 200 ppm (Diabrotica balteata) | mortality at 200 ppm (Thrips tabaci)

Cn1nc(C(F)(F)C(F)(F)F)c(C(F)(F)F)c1-n1cc(-c2cc(C(=O)NC3(C(F)(F)F)CC3)c(Cl)s2)cn1 [Compound 22]
≥ 80%: control (mortality, anti-feedant effect or growth inhibition) at 200 ppm (Spodoptera littoralis) | percent effect (mortality or growth inhibition) at 200 ppm (Plutella xylostella) | percent effect (mortality or growth inhibition) at 200 ppm (Diabrotica balteata) | mortality at 200 ppm (Thrips tabaci) | mortality at 200 ppm (Tetranychus urticae)

CC(C)CNC(=O)c1cc(-c2cnn(-c3c(C(F)(F)F)c(C(F)(F)C(F)(F)F)nn3C)c2)sc1Cl [Compound 23]
≥ 80%: control (mortality, anti-feedant effect or growth inhibition) at 200 ppm (Spodoptera littoralis) | percent effect (mortality or growth inhibition) at 200 ppm (Plutella xylostella) | percent effect (mortality or growth inhibition) at 200 ppm (Diabrotica balteata) | mortality at 200 ppm (Tetranychus urticae)

Cn1nc(C(F)(F)C(F)(F)F)c(C(F)(F)F)c1-n1cc(-c2cc(C(=O)Nc3ccc(Cl)cc3)c(Cl)s2)cn1 [Compound 25]
≥ 80%: percent effect (mortality or growth inhibition) at 200 ppm (Plutella xylostella) | percent effect (mortality or growth inhibition) at 200 ppm (Diabrotica balteata)

Cn1nc(C(F)(F)C(F)(F)F)c(C(F)(F)F)c1-n1cc(-c2cc(C(=O)NCc3ccccn3)c(Cl)s2)cn1 [Compound 26]
≥ 80%: control (mortality, anti-feedant effect or growth inhibition) at 200 ppm (Spodoptera littoralis) | percent effect (mortality or growth inhibition) at 200 ppm (Plutella xylostella) | percent effect (mortality or growth inhibition) at 200 ppm (Diabrotica balteata) | mortality at 200 ppm (Tetranychus urticae)

Cn1nc(C(F)(F)C(F)(F)F)c(C(F)(F)F)c1-n1cc(-c2cc(C(=O)NCCC(F)(F)F)c(Cl)s2)cn1 [Compound 30]
≥ 80%: control (mortality, anti-feedant effect or growth inhibition) at 200 ppm (Spodoptera littoralis) | percent effect (mortality or growth inhibition) at 200 ppm (Plutella xylostella) | percent effect (mortality or growth inhibition) at 200 ppm (Diabrotica balteata) | mortality at 200 ppm (Thrips tabaci) | mortality at 200 ppm (Tetranychus urticae)

Cn1nc(C(F)(F)C(F)(F)F)c(OC(F)F)c1-n1cc(-c2cc(C(=O)NC3(C#N)CC3)cs2)cn1 [Compound 39]
≥ 80%: control (mortality, anti-feedant effect or growth inhibition) at 200 ppm (Spodoptera littoralis) | percent effect (mortality or growth inhibition) at 200 ppm (Plutella xylostella) | percent effect (mortality or growth inhibition) at 200 ppm (Diabrotica balteata) | mortality at 200 ppm (Tetranychus urticae)

Cn1nc(C(F)(F)C(F)(F)F)c(C(F)(F)F)c1-n1cc(-c2csc(C(=O)NC3CC3)n2)cn1 [Compound 40]
≥ 80%: control (mortality, anti-feedant effect or growth inhibition) at 200 ppm (Spodoptera littoralis) | percent effect (mortality or growth inhibition) at 200 ppm (Plutella xylostella) | percent effect (mortality or growth inhibition) at 200 ppm (Diabrotica balteata)

Cn1nc(C(F)(F)C(F)(F)F)c(C(F)(F)F)c1-n1cc(-c2csc(C(=O)NC3(C#N)CC3)n2)cn1 [Compound 41]
≥ 80%: control (mortality, anti-feedant effect or growth inhibition) at 200 ppm (Spodoptera littoralis) | percent effect (mortality or growth inhibition) at 200 ppm (Plutella xylostella) | percent effect (mortality or growth inhibition) at 200 ppm (Diabrotica balteata)

Cn1nc(C(F)(F)C(F)(F)F)c(C(F)(F)F)c1-n1cc(-n2cc(C(=O)NC3(C#N)CC3)c(C(F)(F)F)c2)cn1 [Compound 44]
≥ 80%: control (mortality, anti-feedant effect or growth inhibition) at 200 ppm (Spodoptera littoralis) | percent effect (mortality or growth inhibition) at 200 ppm (Plutella xylostella) | percent effect (mortality or growth inhibition) at 200 ppm (Diabrotica balteata) | mortality at 200 ppm (Thrips tabaci)

Cc1nn(-c2cnn(-c3c(C(F)(F)F)c(C(F)(F)C(F)(F)F)nn3C)c2)cc1C(=O)NC1CC1 [Compound 46]
≥ 80%: control (mortality, anti-feedant effect or growth inhibition) at 200 ppm (Spodoptera littoralis) | percent effect (mortality or growth inhibition) at 200 ppm (Plutella xylostella)

Cn1nc(C(F)(F)C(F)(F)F)c(C(F)(F)F)c1-n1cc(-c2csc(C(=O)NC3(C#N)CC3)c2)cn1 [Compound 51]
≥ 80%: control (mortality, anti-feedant effect or growth inhibition) at 200 ppm (Spodoptera littoralis) | percent effect (mortality or growth inhibition) at 200 ppm (Plutella xylostella) | percent effect (mortality or growth inhibition) at 200 ppm (Diabrotica balteata)

Cn1nc(OC(F)(F)C(F)C(F)(F)F)c(C(F)(F)F)c1-n1cc(-c2cc(C(=O)NC3(C#N)CC3)c(Cl)s2)cn1 (stereo not shown) [Compound 52]
≥ 80%: control (mortality, anti-feedant effect or growth inhibition) at 200 ppm (Spodoptera littoralis) | percent effect (mortality or growth inhibition) at 200 ppm (Plutella xylostella) | percent effect (mortality or growth inhibition) at 200 ppm (Diabrotica balteata) | percent effect (mortality or growth inhibition) at 200 ppm (Euschistus heros)

Reference: patent US10548317B2, “Pesticidally active pyrazole derivatives” (SYNGENTA PARTICIPATIONS AG, priority 2015, dated 2020)
